Like-named read-outs stand apart in the source and are kept apart here.

The results in this text go back to article PMC8158484, “Activity Components from Gynostemma pentaphyllum for Preventing Hepatic Fibrosis and of Its Molecular Targets by Network Pharmacology Approach” (Molecules, 2021).

Type in all cases: cell-based, human
Series [1] relates to LO2 cells. As to the kind of experiment: MTT cell proliferation assay, LO2 normal liver cells. The conditions noted are these: for IC50: 36 h, MTT, read-out: Inhibitory activity (IC50) in LO2 cells. As for the experimental part: (§1) The cell viability was assessed with the MTT assay. The human hepatic stellate cells (t-HSC/Cl-6) and human normal liver cells (LO2) bought from the Cell Bank of Chinese Academy of Sciences (Shanghai, China) were seeded in 96-well plates for 24 h and cultured with high glucose including 10% fetal bovine serum, and 1% penicillin/streptomycin were used to culture cells at 37 °C under 5% CO2 and then were treated with serial dilutions of the compounds (25, 50, 100, 200, 400 μM) for another 36 h. For MTT assay, ten microliters of MTT reagent ([…]) was added to each well after removing all the liquid in the wells, and incubated at 37 °C in a humidified atmosphere of 5% CO2 air for 4 h. At the end of incubation, the growth medium was removed and replaced with 100 μL of DMSO at room temperature and agitating on a vortex for 20 min. The absorbance was determined at 490 nm as reference on a Bio-Rad micro-plate reader.

In series [2] the test system is t-HSC/Cl-6 cells. As to the kind of experiment: MTT cell proliferation assay, activated t-HSC/Cl-6 cells. The conditions noted are these: mean ± SD, read-out: Inhibitory activity (IC50) in activated t-HSC/Cl-6 cells. As for the experimental part:
as §1

Series [3] relates to t-HSC/Cl-6 cells. As to the kind of experiment: Western blotting of cell cycle, PI3K/Akt and caspase proteins. As for the experimental part: RIPA lysis buffer was used to extract total cellular proteins, and the protein concentration was determined by bicinchoninic acid. Protein samples (20 μg/lane) were loaded onto 10% SDS–PAGE gels for electrophoresis and then the transmembrane was conducted. After that, blocking of polyvinylidene fluoride (PVDF) membrane was carried out using 5% bovine serum albumin in Tris-buffered saline Tween-20 (TBST) buffer for 1 h, subsequently probing with a primary antibody (1:1000 dilution), such as p-PI3K, p-Akt, Cl-caspase-3, Cl-caspase-9, Cl-PARP, CDK4, Cyclin D1, or P21, at 4 °C overnight. Then, TBTS was used to wash the membrane. The PVDF membranes were incubated with the secondary antibody (1:5000 dilution) for 2 h. X-ray films were employed to develop the signals.

The test system of series [4] is t-HSC/Cl-6 cells. The series is described as follows: Cell apoptosis analysis: cell morphology and DAPI nuclear staining, t-HSC/Cl-6 cells. The conditions noted are these: 36 h. As for the experimental part: (§2) For cell morphology analysis, t-HSC/C1-6 cells and LO2 cells were grown in 6-well plates. After 24 h, compound 19 was incubated with the cells for another 36 h and 0.1% DMSO was used to culture control cells. […] Then the cells were rinsed with PBS and resuspended in 1 mL of 0.1% DAPI prepared in methanol for 15 min. PBS was used to wash the cells three times. Nuclear morphology was observed by a fluorescent microscope (Olympus BH-2, Osaka, Japan).

For series [5], the system named is t-HSC/C1-6 cells. As to the kind of experiment: Cell cycle analysis by flow cytometry (propidium iodide). The conditions noted are these: 50 μM compound, 36 h; control group 1.04%. How it is done:
The cell cycle analysis was performed using a previous method. The t-HSC/C1-6 cells were cultured in the presence of 50 μM compound 19 and DMSO for 12 h, 24 h, and 36 h. Briefly, treated and untreated cells were trypsinized, harvested, and washed with PBS. Then the cells were fixed with 75% ethanol overnight at […]. Fixed cells were washed with PBS and stained with propidium iodide solution in the dark for 4 h. Cell cycle distribution was analyzed using FACScan (Becton Dickinson Immunocytometry Systems, San Jose, CA, USA).

In series [6] the test system is LO2 cells. As to the kind of experiment: Cell apoptosis analysis: cell morphology and DAPI nuclear staining, LO2 cells. The conditions noted are these: 36 h. How it is done:
as §2

Setting [7] is: Rattus norvegicus, T-HSC/Cl-6, 36 h.
Where [8] appears, read: dose-dependent manner as printed.

As for `CC(C)=CCCC(O)(CO)C1CCC2(C)C1CCC1C3(C)CCC(OC4OC(CO)C(O)C(OC5OCC(O)C(O)C5O)C4OC4OC(C)C(O)C(O)C4O)C(C)(C)C3CCC12C` (centres unmarked) [Compound 7], the IC50 in series [1] (Homo sapiens, L02) is over 200 µM; in series [2] (setting [7]) it was 152 ± 7.4 µM.

Turning to `CC(C)=CCCC(O)(COC1OC(CO)C(O)C(O)C1O)C1CCC2(C)C1CCC1C3(C)CCC(OC4OC(CO)C(O)C(OC5OCC(O)C(O)C5O)C4OC4OC(C)C(O)C(O)C4O)C(C)(C)C3CCC12C` (centres unmarked) [Compound 13], the IC50 in series [1] is over 200 µM; in series [2] (36 h), 106 ± 2.6 µM.

On to `CC(=O)OCC1OC(OC2CCC3(C)C(CCC4(C)C3CCC3C(C5(O)CC(C=C(C)C)OC5=O)CCC34C)C2(C)C)C(OC2OC(C)C(O)C(O)C2O)C(OC2OCC(O)C(O)C2O)C1O` (centres unmarked) [Compound 17], for which the IC50 was over 200 µM in series [1] (Homo sapiens, L02) and 66.1 ± 3.8 µM in series [2] (setting [7]).

Regarding `C=C(C)C=CCC(O)(COC1OC(CO)C(O)C(O)C1O)C1CCC2(C)C1CCC1C3(C)CCC(OC4OC(CO)C(O)C(OC5OCC(O)C(O)C5O)C4OC4OCC(O)C(O)C4O)C(C)(C)C3CCC12C` (centres unmarked) [Compound 18], the IC50 in series [1] (Homo sapiens, L02) was over 200 µM; in series [2] (setting [7]), 58 ± 2.9 µM.

Regarding `CC(C)=CC1CC(O)(C2CCC3(C)C2CCC2C4(C)CCC(OC5OC(CO)C(O)C(OC6OCC(O)C(O)C6O)C5OC5OC(C)C(O)C(O)C5O)C(C)(C)C4CCC23C)C(=O)O1` (centres unmarked) [Compound 9], the IC50 in series [1] (Homo sapiens, L02) is over 200 µM; in series [2] (setting [7]), 114 ± 7.8 µM.

For `CC(C)=CCCC(O)(COC1OC(CO)C(O)C(O)C1O)C1CCC2(C)C1CCC1C3(CO)CCC(OC4OC(CO)C(O)C(OC5OCC(O)C(O)C5O)C4OC4OC(C)C(O)C(O)C4O)C(C)(C)C3CCC12C` (centres unmarked) [Compound 14], the IC50 in series [1] (Homo sapiens, L02) is over 200 µM; in series [2] (setting [7]), over 200 µM.

Regarding `C=C(C)OCC1OC(OC2CCC3(C)C(CCC4(C)C3CCC3C(C5(O)CC(C=C(C)C)OC5=O)CCC34C)C2(C)C)C(OC2OC(C)C(O)C(O)C2O)C(OC2OCC(O)C(O)C2O)C1O` (centres unmarked) [Compound 4], the IC50 was over 200 µM in series [1] (Homo sapiens, L02) and 126 ± 9.7 µM in series [2] (setting [7]).

For the molecule `CC(C)=CCCC(O)(COC1OC(CO)C(O)C(O)C1O)C1CCC2(C)C1CCC1C3(C)CCC(OC4OC(CO)C(O)C(OC5OCC(O)C(O)C5O)C4OC4OCC(O)C(O)C4O)C(C)(C)C3CCC12C` (centres unmarked) [Compound 1], the IC50 in series [1] (Homo sapiens, L02) is over 200 µM; in series [2] (setting [7]) it was over 200 µM.

Take `CC(C)=CCCC(O)(CO)C1CCC2(C)C1CCC1C3(C=O)CCC(OC4OCC(O)C(OC5OCC(O)C(O)C5O)C4OC4OC(C)C(O)C(O)C4O)C(C)(C)C3CCC12C` (centres unmarked) [Compound 11]: the IC50 in series [1] (Homo sapiens, L02) was over 200 µM; in series [2] (setting [7]), 43.6 ± 2.7 µM.

`CC(C)=CC1CC(O)(C2CCC3(C)C2CCC2C4(C)CCC(OC5OC(CO)C(O)C(OC6OCC(O)C(O)C6O)C5OC5OC(C)C(O)C(O)C5O)C(C)(C)C4CCC23C)C(O)O1` (centres unmarked) [Compound 8]: the IC50 in series [1] (Homo sapiens, L02) was over 200 µM; in series [2] (setting [7]) it was 68.8 ± 3.2 µM.

Regarding `C=C(C)OCC1OC(OC2CCC3(C)C(CCC4(C)C3CCC3C(C(O)(CCC=C(C)C)COC5OC(CO)C(O)C(O)C5O)CCC34C)C2(C)C)C(OC2OC(C)C(O)C(O)C2O)C(OC2OCC(O)C(O)C2O)C1O` (centres unmarked) [Compound 3], the IC50 was over 200 µM in series [1] (Homo sapiens, L02) and over 200 µM in series [2] (setting [7]).

For `C=C(C)OCC1OC(OC2CCC3(C)C(CCC4(C)C3CCC3C(C5(O)CC(C=C(C)C)OC5O)CCC34C)C2(C)C)C(OC2OC(C)C(O)C(O)C2O)C(OC2OCC(O)C(O)C2O)C1O` (centres unmarked) [Compound 5], the IC50 in series [1] (Homo sapiens, L02) was over 200 µM; in series [2] (setting [7]), over 200 µM.

On to `CC(C)=CCCC(O)(COC1OC(CO)C(O)C(O)C1O)C1CCC2(C)C1CCC1C3(C)CCC(OC4OC(CO)C(O)C(OC5OCC(O)C(O)C5O)C4OC4OC(C)C(O)C(O)C4O)C(C)(C)C3CCC12C` (centres unmarked) [Compound 12], for which the IC50 was over 200 µM in series [1] (Homo sapiens, L02) and over 200 µM in series [2] (setting [7]).

Regarding `CCCCOC1OC(C=C(C)C)CC1(O)C1CCC2(C)C1CCC1C3(C)CCC(OC4OC(CO)C(O)C(OC5OCC(O)C(O)C5O)C4OC4OC(C)C(O)C(O)C4O)C(C)(C)C3CCC12C` (centres unmarked) [Compound 19], in series [3], the “cyclin D1 expression” value is reported as “decreased” and the p21 level result was “significant accumulation”. For the same molecule, in series [3] (as time increased), the “Expression of phosphorylated-Akt” value is recorded as “inhibited” and the “Expression of phosphorylated-PI3K” value is on record as “inhibited”. For the same molecule, in series [3] (setting [8]), the “Expression level of cleaved caspase-3” value is “activated” and the “Expression level of cleaved caspase-9” value is listed as “activated”. Moreover, the IC50 in series [1] (Homo sapiens, L02) was over 200 µM. Also, in series [1] (in words), the “Cytotoxicity to LO2 cells” value is “nontoxic”. For the same molecule, the IC50 in series [2] (setting [7]) is 28.1 ± 2 µM. In series [4], the “Nuclear morphology of t-HSC/Cl-6 cells (DAPI staining)” value is listed as “Typical apoptotic nuclear changes were observed”. Also, in series [4] (phase contrast microscopy), the “Cell morphology (apoptosis) of t-HSC/Cl-6 cells” value is “apoptotic bodies and cell shrinkage were observed”. In addition, the “Cells in the subG1 phase” value in series [5] is 38.63%. Besides, the “Nuclear morphology of LO2 cells (DAPI staining)” value in series [6] is recorded as “did not appear to have any specific effect”. Besides, in series [6] (phase contrast microscopy), the “Cell morphology of LO2 cells” value is “no shrinkage was seen”.

Regarding `CCCCOC1OC(C=C(C)C)CC1(O)C1CCC2(C)C1CCC1C3(C)CCC(OC4OCC(O)C(OC5OCC(O)C(O)C5O)C4OC4OC(C)C(O)C(O)C4O)C(C)(C)C3CCC12C` (centres unmarked) [Compound 16], the IC50 is over 200 µM in series [1] (Homo sapiens, L02) and 44.7 ± 1 µM in series [2] (setting [7]).

Regarding `CC(C)=CCCC(O)(COC1OC(CO)C(O)C(O)C1O)C1CCC2(C)C1CCC1C3(C=O)CCC(OC4OCC(O)C(OC5OC(CO)C(O)C(O)C5O)C4OC4OC(C)C(O)C(O)C4O)C(C)(C)C3CCC12C` (centres unmarked) [Compound 10], the IC50 was over 200 µM in series [1] (Homo sapiens, L02) and over 200 µM in series [2] (setting [7]).

As to `CC(C)=CCCC(O)(COC1OC(CO)C(O)C(O)C1O)C1CCC2(C)C1CCC1C3(CO)CCC(OC4OCC(O)C(OC5OCC(O)C(O)C5O)C4OC4OC(C)C(O)C(O)C4O)C(C)(C)C3CCC12C` (centres unmarked) [Compound 15], the IC50 was over 200 µM in series [1] (Homo sapiens, L02) and over 200 µM in series [2] (setting [7]).

As to `CC(C)=CC1CC(O)(C2CCC3(C)C2CCC2C4(C)CCC(OC5OC(CO)C(O)C(OC6OCC(O)C(O)C6O)C5OC5OC(C)C(O)C(O)C5O)C(C)(C)C4CCC23C)C(=O)O1` (centres unmarked) [Compound 6], the IC50 in series [1] is over 200 µM; in series [2] (36 h) it was 99.9 ± 4.5 µM.

With `CC(C)=CCCC(O)(CO)C1CCC2(C)C1CCC1C3(C=O)CCC(OC4OCC(O)C(O)C4OC4OC(C)C(O)C(O)C4O)C(C)(C)C3CCC12C` (centres unmarked) [Compound 2], the IC50 in series [1] (Homo sapiens, L02) is over 200 µM; in series [2] (setting [7]), 50.4 ± 1.4 µM.
